Source: patent US20150353495A1 (PORTOLA PHARMACEUTICALS, INC., priority 2010, published 2015)

Assays:
Format in all cases: biochemical
JAK2 = target: T1, JAK2 (Homo sapiens, UniProt O60674); experiment: Z'-LYTE kinase assay JAK2
T1 construct: 5 μl of catalytic domain recombinant Kinase enzyme+Tyr peptide substrate (Invitrogen, CA); purchased Invitrogen
How it was run: (§1)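 Read-out is FRET fluorescence between coumarin and fluorescein on a Tyr6 peptide, lost when the development protease cleaves unphosphorylated substrate. Kinase reaction used recombinant catalytic domain with ATP, 1 h at room temperature, 1% DMSO.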

JAK1 = target: T2, JAK1 (Homo sapiens, UniProt P23458); experiment: Z'-LYTE kinase assay JAK1
T2 construct: 5 μl of catalytic domain recombinant Kinase enzyme+Tyr peptide substrate (Invitrogen, CA); purchased Invitrogen
T2 sequence (P23458 875-1153 limits assumed): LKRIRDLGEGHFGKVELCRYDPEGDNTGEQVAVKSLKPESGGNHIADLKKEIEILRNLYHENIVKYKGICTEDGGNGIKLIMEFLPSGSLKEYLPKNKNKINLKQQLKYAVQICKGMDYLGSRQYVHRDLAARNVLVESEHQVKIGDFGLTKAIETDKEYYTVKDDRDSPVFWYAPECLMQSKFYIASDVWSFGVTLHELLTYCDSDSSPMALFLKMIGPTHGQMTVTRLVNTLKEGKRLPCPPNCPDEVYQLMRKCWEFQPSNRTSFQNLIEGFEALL
How it was run: as §1

JAK3 = target: T3, JAK3 (Homo sapiens, UniProt P52333); experiment: Z'-LYTE kinase assay JAK3
T3 construct: 5 μl of catalytic domain recombinant Kinase enzyme+Tyr peptide substrate (Invitrogen, CA); purchased Invitrogen
T3 sequence (P52333 822-1111 limits assumed): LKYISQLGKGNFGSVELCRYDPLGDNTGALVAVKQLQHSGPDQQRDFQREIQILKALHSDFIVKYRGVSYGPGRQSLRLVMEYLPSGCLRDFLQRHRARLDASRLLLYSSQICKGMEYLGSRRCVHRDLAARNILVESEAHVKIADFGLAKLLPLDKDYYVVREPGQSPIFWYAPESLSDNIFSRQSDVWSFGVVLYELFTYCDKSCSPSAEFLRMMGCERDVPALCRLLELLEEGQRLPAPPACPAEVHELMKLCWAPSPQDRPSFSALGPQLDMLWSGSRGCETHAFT
How it was run: as §1

T1 sequence (O60674 849-1124 limits assumed): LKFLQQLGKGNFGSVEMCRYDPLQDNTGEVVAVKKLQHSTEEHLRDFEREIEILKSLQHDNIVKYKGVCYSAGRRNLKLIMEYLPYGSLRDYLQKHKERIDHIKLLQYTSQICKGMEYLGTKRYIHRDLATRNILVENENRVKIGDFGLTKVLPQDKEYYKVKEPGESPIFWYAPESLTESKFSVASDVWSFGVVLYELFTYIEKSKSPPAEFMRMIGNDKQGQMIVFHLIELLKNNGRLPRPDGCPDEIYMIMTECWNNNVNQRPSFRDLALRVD

| IC50 (JAK2) [nM] | IC50 (JAK1) [nM] | IC50 (JAK3) [nM] | SMILES |
| --- | --- | --- | --- |
| 100 to 1000 | 100 to 1000 | 10 to 100 | NC(=O)c1cnc(Nc2ccc(C(=O)NCC(F)(F)F)cc2)cc1NCc1cncc(F)c1 [Example 313, 4-((5-fluoropyridin-3-yl)methylamino)-6-(4-(2,2,2-trifluoroethylcarbamoyl)phenylamino)nicotinamide] |
| 100 to 1000 | > 1000 | 10 to 100 | CN(CC(F)(F)F)C(=O)c1ccc(Nc2cc(NCc3cncc(F)c3)c(C(N)=O)cn2)cc1 [Example 314, 4-((5-fluoropyridin-3-yl)methylamino)-6-(4-(methyl(2,2,2-trifluoroethyl)carbamoyl)phenylamino)nicotinamide] |
| 100 to 1000 | 100 to 1000 | 10 to 100 | COc1ccc(Nc2cc(NCc3cccc(F)n3)c(C(N)=O)cn2)cc1 [Example 315, 4-((6-fluoropyridin-2-yl)methylamino)-6-(4-methoxyphenylamino)nicotinamide] |
| 100 to 1000 | 100 to 1000 | 1 to 10 | CN(C)C(=O)c1ccc(Nc2cc(NCc3cccc(F)n3)c(C(N)=O)cn2)cc1 [Example 316, 6-(4-(dimethylcarbamoyl)phenylamino)-4-((6-fluoropyridin-2-yl)methylamino)nicotinamide] |
| > 1000 | > 1000 | 100 to 1000 | COc1ccc(Nc2cc(NCc3cccc4ccn(C)c34)c(C(N)=O)cn2)cc1 [Example 317, 6-(4-methoxyphenylamino)-4-((1-methyl-1H-indol-7-yl)methylamino)nicotinamide] |
| 100 to 1000 | > 1000 | 10 to 100 | CN(C)C(=O)c1ccc(Nc2cc(NCc3cccc4ccn(C)c34)c(C(N)=O)cn2)cc1 [Example 318, 6-(4-(dimethylcarbamoyl)phenylamino)-4-((1-methyl-1H-indol-7-yl)methylamino)nicotinamide] |
| > 1000 | > 1000 | 100 to 1000 | NC(=O)c1cnc(Nc2cc(F)cc(F)c2)cc1NCc1cccc2[nH]ccc12 [Example 323, 4-((1H-indol-4-yl)methylamino)-6-(3,5-difluorophenylamino)nicotinamide] |
| 100 to 1000 | 100 to 1000 | 1 to 10 | CC(=O)N1CC(c2ccc(Nc3cc(NCc4ccccc4)c(C(N)=O)cn3)cc2)C1 [Example 324, 6-(4-(1-acetylazetidin-3-yl)phenylamino)-4-(benzylamino)nicotinamide] |
| 100 to 1000 | > 1000 | 1 to 10 | NC(=O)c1cnc(Nc2ccc(C3CNC3)cc2)cc1NCc1ccccc1 [Example 325, 6-(4-(azetidin-3-yl)phenylamino)-4-(benzylamino)nicotinamide] |
| 100 to 1000 | 100 to 1000 | 1 to 10 | CCC(=O)N1CC(c2ccc(Nc3cc(NCc4ccccc4)c(C(N)=O)cn3)cc2)C1 [Example 326, 4-(benzylamino)-6-(4-(1-propionylazetidin-3-yl)phenylamino)nicotinamide] |
| 100 to 1000 | > 1000 | 10 to 100 | COC(=O)N1CC(c2ccc(Nc3cc(NCc4ccccc4)c(C(N)=O)cn3)cc2)C1 [Example 327, methyl 3-(4-(4-(benzylamino)-5-carbamoylpyridin-2-ylamino)phenyl)azetidine-1-carboxylate] |
| 100 to 1000 | 100 to 1000 | 1 to 10 | CN(C)C(=O)Cc1ccc(Nc2cc(NCc3ccccc3)c(C(N)=O)cn2)cc1 [Example 328, 4-(benzylamino)-6-(4-(2-(dimethylamino)-2-oxoethyl)phenylamino)nicotinamide] |
| 100 to 1000 | 100 to 1000 | 1 to 10 | NC(=O)c1cnc(Nc2ccc(CC(=O)N3CCCC3)cc2)cc1NCc1ccccc1 [Example 329, 4-(benzylamino)-6-(4-(2-oxo-2-(pyrrolidin-1-yl)ethyl)phenylamino)nicotinamide] |
| 100 to 1000 | 100 to 1000 | 1 to 10 | NC(=O)c1cnc(Nc2ccc(CC(=O)N3CCOCC3)cc2)cc1NCc1ccccc1 [Example 330, 4-(benzylamino)-6-(4-(2-morpholino-2-oxoethyl)phenylamino)nicotinamide] |
| 100 to 1000 | 100 to 1000 | 1 to 10 | CN(C)C(=O)C1CN(c2ccc(Nc3cc(NCc4ccccc4)c(C(N)=O)cn3)cc2)C1 [Example 331, 4-(benzylamino)-6-(4-(3-(dimethylcarbamoyl)azetidin-1-yl)phenylamino)nicotinamide] |
| > 1000 | > 1000 | 10 to 100 | COc1ccc(Nc2cc(NCc3ccccc3)c(C(N)=O)cn2)cc1Cl [Example 332, 4-(benzylamino)-6-(3-chloro-4-methoxyphenylamino)nicotinamide] |
| 100 to 1000 | 100 to 1000 | 10 to 100 | CC(=O)N1CC(c2ccc(Nc3cc(NCc4cncc(F)c4)c(C(N)=O)cn3)cc2)C1 [Example 334, 6-(4-(1-acetylazetidin-3-yl)phenylamino)-4-((5-fluoropyridin-3-yl)methylamino)nicotinamide] |
| 100 to 1000 | 100 to 1000 | 10 to 100 | CS(=O)(=O)N1CC(c2ccc(Nc3cc(NCc4ccccc4)c(C(N)=O)cn3)cc2)C1 [Example 335, 4-(benzylamino)-6-(4-(1-(methylsulfonyl)azetidin-3-yl)phenylamino)nicotinamide] |
| 100 to 1000 | 100 to 1000 | 1 to 10 | COCC(=O)N1CC(c2ccc(Nc3cc(NCc4ccccc4)c(C(N)=O)cn3)cc2)C1 [Example 336, 4-(benzylamino)-6-(4-(1-(2-methoxyacetyl)azetidin-3-yl)phenylamino)nicotinamide] |
| 100 to 1000 | 100 to 1000 | 1 to 10 | CN(C)C(=O)N1CC(c2ccc(Nc3cc(NCc4ccccc4)c(C(N)=O)cn3)cc2)C1 [Example 337, 4-(benzylamino)-6-(4-(1-(dimethylcarbamoyl)azetidin-3-yl)phenylamino)nicotinamide] |
| 100 to 1000 | 100 to 1000 | 1 to 10 | NC(=O)c1cnc(Nc2ccc(C3CN(C(=O)N4CCCC4)C3)cc2)cc1NCc1ccccc1 [Example 338, 4-(benzylamino)-6-(4-(1-(pyrrolidine-1-carbonyl)azetidin-3-yl)phenylamino)nicotinamide] |
| > 1000 | > 1000 | 10 to 100 | CN(C)S(=O)(=O)N1CC(c2ccc(Nc3cc(NCc4ccccc4)c(C(N)=O)cn3)cc2)C1 [Example 339, 4-(benzylamino)-6-(4-(1-(N,N-dimethylsulfamoyl)azetidin-3-yl)phenylamino)nicotinamide] |
| 100 to 1000 | 100 to 1000 | 10 to 100 | CNC(=O)Cc1ccc(Nc2cc(NCc3ccccc3)c(C(N)=O)cn2)cc1 [Example 340, 4-(benzylamino)-6-(4-(2-(methylamino)-2-oxoethyl)phenylamino)nicotinamide] |
| 100 to 1000 | 100 to 1000 | 1 to 10 | NC(=O)c1cnc(Nc2ccc(CC(=O)NCC(F)(F)F)cc2)cc1NCc1ccccc1 [Example 341, 4-(benzylamino)-6-(4-(2-oxo-2-(2,2,2-trifluoroethylamino)ethyl)phenylamino)nicotinamide] |
